US9765105B2, “Macrolide compound” (Pulike Biological Engineering, Inc., priority 2013, dated 2017)
Blank lines part the entries; values can stand above or below the molecule they belong to.

Columns and labels:
Assay in all cases: in vitro susceptibility, MIC by mini broth dilution
Type in all cases: cell-based
[1] = system: Pasteurella multocida CVCC399; conditions: strain CVCC399
Method: (§1) in vitro tests of susceptibility of the compounds according to the present disclosure against bacterial strains commonly used in laboratories. In accordance with the Performance Standards for Antimicrobial Disk Susceptibility Tests: Approved Standard published by the US National Committee for Clinical Laboratory Standards, the antibacterial activities of compounds prepared according to examples 5 to 187 were tested. The MICs (minimum inhibitory concentration) of the medicaments prepared according to the examples on the following bacterial strains were measured through mini broth dilution technique. Staphylococcus aureus CVCC26003, Streptococcus equines CVCC556. Actinobacillus pleuropneumoniae CVCC262, Haemophilus parasuis, and Pasteurella multocida CVCC399, which were purchased from the Control Institute of Veterinary Bioproducts and Pharmaceuticals, China. 4.1.2 Culture Media for the Rest Four Bacterial Strains. Liquid culture medium: […] Solid culture medium: […] The strains were taken out of a refrigerator at −20° C. to be revived, and were spreaded by streaking on the solid culture medium with an inoculating loop. The inoculated culture medium was cultured at 35° C. in a constant temperature incubator for 20 h. […] were selected from a well-grown culture plate and streaked on the solid culture medium. The inoculated culture medium was cultured at 35° C. in the constant temperature incubator for 20 h. […] A 96-well plate was used, and 100 μl of DMSO was added into each of wells 2 to 11, and 200 μl of ready-prepared medicament solution was added into the 1st well, 100 μl of the medicament solution was extracted from the 1st well and added into the 2nd well. Double dilution was performed until the 11th well, thereby forming 11 gradients. In this case, compound of parent plate was prepared. 3 μl of double diluted medicament solution was extracted with a 12-channel pipettor and added into wells 1-11 of a new disposable 96-well culture plate. The 12th well thereof is a control well. For each medicament, there are two adjacent rows which are parallel. The transferred compound plate was reserved for later use. […] The dilution ratio was recorded, and the bacterial liquid for the tests was diluted according to the recorded dilution ratio. Subsequently, the bacterial suspension and the liquid culture medium were diluted in the proportion of 1:200. The diluted solution was reserved for later use.

[2] = system: Streptococcus equines CVCC556; conditions: strain CVCC556
Method: as §1

Haemophilus parasuis = system: Haemophilus parasuis
Method: as §1

[3] = system: Actinobacillus pleuropneumoniae CVCC262; conditions: strain CVCC262
Method: as §1

[4] = system: Staphylococcus aureus CVCC26003; conditions: strain CVCC26003
Method: in vitro tests of susceptibility of the compounds according to the present disclosure against bacterial strains commonly used in laboratories. In accordance with the Performance Standards for Antimicrobial Disk Susceptibility Tests: Approved Standard published by the US National Committee for Clinical Laboratory Standards, the antibacterial activities of compounds prepared according to examples 5 to 187 were tested. The MICs (minimum inhibitory concentration) of the medicaments prepared according to the examples on the following bacterial strains were measured through mini broth dilution technique. Staphylococcus aureus CVCC26003, Streptococcus equines CVCC556. Actinobacillus pleuropneumoniae CVCC262, Haemophilus parasuis, and Pasteurella multocida CVCC399, which were purchased from the Control Institute of Veterinary Bioproducts and Pharmaceuticals, China. 4.1.1 Culture Medium for Staphylococcus aureus CVCC26003 Liquid culture medium: CAMHB. […] Solid culture medium: NINA prepared according to the specification of the final product. The strains were taken out of a refrigerator at −20° C. to be revived, and were spreaded by streaking on the solid culture medium with an inoculating loop. The inoculated culture medium was cultured at 35° C. in a constant temperature incubator for 20 h. […] were selected from a well-grown culture plate and streaked on the solid culture medium. The inoculated culture medium was cultured at 35° C. in the constant temperature incubator for 20 h. […] A 96-well plate was used, and 100 μl of DMSO was added into each of wells 2 to 11, and 200 μl of ready-prepared medicament solution was added into the 1st well, 100 μl of the medicament solution was extracted from the 1st well and added into the 2nd well. Double dilution was performed until the 11th well, thereby forming 11 gradients. In this case, compound of parent plate was prepared. 3 μl of double diluted medicament solution was extracted with a 12-channel pipettor and added into wells 1-11 of a new disposable 96-well culture plate. The 12th well thereof is a control well. For each medicament, there are two adjacent rows which are parallel. The transferred compound plate was reserved for later use. […] The dilution ratio was recorded, and the bacterial liquid for the tests was diluted according to the recorded dilution ratio. Subsequently, the bacterial suspension and the liquid culture medium were diluted in the proportion of 1:200. The diluted solution was reserved for later use.

SMILES: CCC1OC(=O)C(C)C(OC2CC(C)(OC)C(O)(CNCNCc3ccc(C=O)cc3)C(C)O2)C(C)C(OC2OC(C)CC(N(C)C)C2O)C(C)(O)CC(C)NCC(C)C(O)C1(C)O [syzx-39, (2R,3S,4R,5S,8R,10R,11R,12S,13S,14R)-13-[(2,6-dideoxy-3-C-methyl-3-O-methyl-4-C-[[[(4-formyl-benzyl-amino)-methyl]amino]-methyl]-α-L-ribopyranosyl)oxy]-2-ethyl-3,4,10-trihydroxy-3,5,8,10,12,14-hexamethyl-11-[[3,4,6-trideoxy-3-(dimethylamino)-β-D-xylo-hexopyranosy]oxy]-1-oxa-7-azacyclopentadecan-15-one]
MIC values, Pasteurella multocida CVCC399 [1]: 0.5 ug/mi
MIC values, Streptococcus equines CVCC556 [2]: 0.5 ug/mi
MIC values, Haemophilus parasuis (Haemophilus parasuis): 0.25 ug/mi
MIC values, Actinobacillus pleuropneumoniae CVCC262 [3]: 0.25 ug/mi
MIC values, Staphylococcus aureus CVCC26003 [4]: 0.25 ug/mi

SMILES: C#CCNC[C@]1(O)[C@H](C)O[C@@H](O[C@H]2[C@H](C)[C@@H](O[C@@H]3O[C@H](C)C[C@H](N(C)C)[C@H]3O)[C@](C)(O)C[C@@H](C)NC[C@H](C)[C@@H](O)[C@](C)(O)[C@@H](CC)OC(=O)[C@@H]2C)C[C@@]1(C)OC [syzx-40, (2R,3S,4R,5S,8R,10R,11R,12S,13S,14R)-13-[(2,6-dideoxy-3-C-methyl-3-O-methyl-4-C-[[propargyl-amino]-methyl]-α-L-ribopyranosyl)oxy]-2-ethyl-3,4,10-trihydroxy-3,5,8,10,12,14-hexamethyl-11-[[3,4,6-trideoxy-3-(dimethylamino)-β-D-xylo-hexopyranosy]oxy]-1-oxa-7-azacyclopentadecan-15-one]
MIC values, Pasteurella multocida CVCC399 [1]: 1 ug/mi
MIC values, Streptococcus equines CVCC556 [2]: 0.5 ug/mi
MIC values, Haemophilus parasuis (Haemophilus parasuis): 0.5 ug/mi
MIC values, Actinobacillus pleuropneumoniae CVCC262 [3]: 16 ug/mi
MIC values, Staphylococcus aureus CVCC26003 [4]: 0.5 ug/mi

SMILES: CCC(NC[C@]1(O)[C@H](C)O[C@@H](O[C@H]2[C@H](C)[C@@H](O[C@@H]3O[C@H](C)C[C@H](N(C)C)[C@H]3O)[C@](C)(O)C[C@@H](C)NC[C@H](C)[C@@H](O)[C@](C)(O)[C@@H](CC)OC(=O)[C@@H]2C)C[C@@]1(C)OC)C(=O)O (stereo partly drawn) [syzx-41, (2R,3S,4R,5S,8R,10R,11R,12S,13S,14R)-13-[(2,6-dideoxy-3-C-methyl-3-O-methyl-4-C-[[butyrate-2-amino]-methyl]-α-L-ribopyranosyl)oxy]-2-ethyl-3,4,10-trihydroxy-3,5,8,10,12,14-hexamethyl-11-[[3,4,6-trideoxy-3-(dimethylamino)-β-D-xylo-hexopyranosy]oxy]-1-oxa-7-azacyclopentadecan-15-one]
MIC values, Pasteurella multocida CVCC399 [1]: 4 ug/mi
MIC values, Streptococcus equines CVCC556 [2]: 0.5 ug/mi
MIC values, Haemophilus parasuis (Haemophilus parasuis): 1 ug/mi
MIC values, Actinobacillus pleuropneumoniae CVCC262 [3]: 1 ug/mi
MIC values, Staphylococcus aureus CVCC26003 [4]: 2 ug/mi

SMILES: CC[C@H]1OC(=O)[C@H](C)[C@@H](O[C@H]2C[C@@](C)(OC)[C@](O)(CNCCCC(=O)O)[C@H](C)O2)[C@H](C)[C@@H](O[C@@H]2O[C@H](C)C[C@H](N(C)C)[C@H]2O)[C@](C)(O)C[C@@H](C)NC[C@H](C)[C@@H](O)[C@]1(C)O [syzx-42, (2R,3S,4R,5S,8R,10R,11R,12S,13S,14R)-13-[(2,6-dideoxy-3-C-methyl-3-O-methyl-4-C-[[butyrate-4-amino]-methyl]-α-L-ribopyranosyl)oxy]-2-ethyl-3,4,10-trihydroxy-3,5,8,10,12,14-hexamethyl-11-[[3,4,6-trideoxy-3-(dimethylamino)-β-D-xylo-hexopyranosy]oxy]-1-oxa-7-azacyclopentadecan-15-one]
MIC values, Pasteurella multocida CVCC399 [1]: 2 ug/mi
MIC values, Streptococcus equines CVCC556 [2]: 1 ug/mi
MIC values, Haemophilus parasuis (Haemophilus parasuis): 1 ug/mi
MIC values, Actinobacillus pleuropneumoniae CVCC262 [3]: 1 ug/mi
MIC values, Staphylococcus aureus CVCC26003 [4]: 2 ug/mi

Second part, the molecule after the results:

MIC values, Pasteurella multocida CVCC399 [1]: 4 ug/mi
MIC values, Streptococcus equines CVCC556 [2]: 2 ug/mi
MIC values, Haemophilus parasuis (Haemophilus parasuis): ≦0.25 ug/mi
MIC values, Actinobacillus pleuropneumoniae CVCC262 [3]: 32 ug/mi
MIC values, Staphylococcus aureus CVCC26003 [4]: 1 ug/mi
SMILES: CC[C@H]1OC(=O)[C@H](C)[C@@H](O[C@H]2C[C@@](C)(OC)[C@](O)(CNCCCO)[C@H](C)O2)[C@H](C)[C@@H](O[C@@H]2O[C@H](C)C[C@H](N(C)C)[C@H]2O)[C@](C)(O)C[C@@H](C)NC[C@H](C)[C@@H](O)[C@]1(C)O [syzx-46, (2R,3S,4R,5S,8R,10R,11R,12S,13S,14R)-13-[(2,6-dideoxy-3-C-methyl-3-O-methyl-4-C-[(3-hydroxy-propylamino)-methyl]-α-L-ribopyranosyl)oxy]-2-ethyl-3,4,10-trihydroxy-3,5,8,10,12,14-hexamethyl-11-[[3,4,6-trideoxy-3-(dimethylamino)-β-D-xylo-hexopyranosy]oxy]-1-oxa-7-azacyclopentadecan-15-one]

MIC values, Pasteurella multocida CVCC399 [1]: 1 ug/mi
MIC values, Streptococcus equines CVCC556 [2]: 0.5 ug/mi
MIC values, Haemophilus parasuis (Haemophilus parasuis): ≦0.25 ug/mi
MIC values, Actinobacillus pleuropneumoniae CVCC262 [3]: 16 ug/mi
MIC values, Staphylococcus aureus CVCC26003 [4]: 0.5 ug/mi
SMILES: CC[C@H]1OC(=O)[C@H](C)[C@@H](O[C@H]2C[C@@](C)(OC)[C@](O)(CNN3CCOCC3)[C@H](C)O2)[C@H](C)[C@@H](O[C@@H]2O[C@H](C)C[C@H](N(C)C)[C@H]2O)[C@](C)(O)C[C@@H](C)NC[C@H](C)[C@@H](O)[C@]1(C)O [syzx-48, (2R,3S,4R,5S,8R,10R,11R,12S,13S,14R)-13-[(2,6-dideoxy-3-C-methyl-3-O-methyl-4-C-[(morpholin-4-yl-amino)-methyl]-α-L-ribopyranosyl)oxy]-2-ethyl-3,4,10-trihydroxy-3,5,8,10,12,14-hexamethyl-11-[[3,4,6-trideoxy-3-(dimethylamino)-β-D-xylo-hexopyranosy]oxy]-1-oxa-7-azacyclopentadecan-15-one]

MIC values, Pasteurella multocida CVCC399 [1]: 1 ug/mi
MIC values, Streptococcus equines CVCC556 [2]: 1 ug/mi
MIC values, Haemophilus parasuis (Haemophilus parasuis): 0.5 ug/mi
MIC values, Actinobacillus pleuropneumoniae CVCC262 [3]: 0.5 ug/mi
MIC values, Staphylococcus aureus CVCC26003 [4]: 1 ug/mi
SMILES: CC[C@H]1OC(=O)[C@H](C)[C@@H](OC2CC(C)(OC)C(O)(CNC(C)CC(=O)O)C(C)O2)[C@H](C)[C@@H](O[C@@H]2O[C@H](C)C[C@H](N(C)C)[C@H]2O)[C@](C)(O)C[C@@H](C)NC[C@H](C)[C@@H](O)[C@]1(C)O (stereo partly drawn) [syzx-50, 3-({(2R,3S,4R,5S,8R,10R,11R,12S,13S,14R)-6-[-11-[[3,4,6-trideoxy-3-(dimethylamino)-β-D-xylo-hexopyranosy]oxy]-2-ethyl-3,4,10-trihydroxy-3,5,8,10,12,14-hexamethyl-1-oxa-7-azacyclopentadecan-15-one-13-yl-oxy]-3-hydroxy-4-methoxy-2,4-dimethyl-tetrahydropyran-3-yl-methyl}-amino)-butyric acid]
